# Read-outs that look alike come from different tables or passages of the source.
# Tests used:
# [1] = test system: S. aureus clinical strain AD3; assay: MIC and MBC determination (broth microdilution); assay type: cell-based; settings: Staphylococcus aureus
# Method: (§1) The MIC values of Z33 against MRSA ATCC 43300 and S. aureus clinical isolates were measured according to the broth microdilution guidelines provided by the Clinical and Laboratory Standards Institute (CLSI). S. aureus ATCC 29213 was used as the quality control strain, and the quality control range was referred to the CLSI. The MIC value is defined as the lowest concentration of the compounds with no visible growth of bacteria. The MIC assay was independently repeated three times.
# (§2) The MBC values of antibacterial agents were measured after incubation at 37 °C for 24 h. Briefly, 100 µL of bacterial solution from the three wells behind the corresponding well of MIC was absorbed and spread on the Mueller–Hinton Agar (MHA). The MBC refers to the lowest concentration corresponding to the amount of colony-forming unit (CFU) ≤ 5 on the medium after 18~24 h of incubation at 37 °C.
# [2] = test system: S. aureus clinical strain 144; assay: MIC and MBC determination (broth microdilution); assay type: cell-based; settings: Staphylococcus aureus
# Method: as §1, §2
# MRSA ATCC 43300 [3] = assay: MIC and MBC determination (broth microdilution); assay type: cell-based; settings: Staphylococcus aureus
# Method: as §1, §2
# S. aureus ATCC 29213 [4] = assay: MIC and MBC determination (broth microdilution); assay type: cell-based; settings: Staphylococcus aureus
# Method: as §1, §2
# ICR mice = assay: Acute oral toxicity in mice; settings: mouse, in vivo, po, 5000 mg/kg
# Method: (§3) The acute toxicity of Z33 was performed in mice according to previous works with some modifications. The ICR mice were randomly divided into two groups (10 animals in each group, half male and half female) after 12 h of fasting. Z33 was prepared with 0.5% CMC-Na sodium as a suspension at a concentration of 5 g/kg. Mice in the test group were administered with Z33 suspension by oral administration route, and the control group received an equal dose of 0.5% CMC-Na. All the mice were observed critically once a day for 14 days. The test was repeated twice.
# [5] = Acute oral toxicity in mice; settings: both sexes, ICR, mouse, in vivo, 5 g/kg; acute oral toxicity, mice
# Method: as §3
# MRSA ATCC 43300 [6] = assay: Neutropenic mouse thigh infection model; assay type: in vivo, mice
# Method: The neutropenic mouse thigh infection model was used to determine the in vivo antibacterial activity of Z33 [23]. Briefly, female mice were rendered neutropenic (neutrophil count ≤ 100/mm^3) via intraperitoneal injection of cyclophosphamide on day 4 (150 mg/kg) and day 1 (100 mg/kg) before infection. MRSA ATCC 43300 cells were collected in the logarithmic phase and resuspended in 0.9% saline. The thigh infection model was established by injection of 100 μL of MRSA suspension (10^7 CFU/mL) into the posterior thighs of mice. After 2 h post-infection, mice were intravenously injected with tiamulin and Z33 at a dose of 20 mg/kg, and the untreated groups were administrated with an equal amount of saline. Mice were euthanized after treatment of 22 h, thigh tissue was aseptically collected, weighed, homogenized, and serially diluted in saline, respectively. CFU counts were determined by the flat colony counting method.
# MRSA ATCC 43300 [7] = assay: Post-antibiotic effect assay; assay type: cell-based, Staphylococcus aureus
# Method: The PAE was measured using the method described by Jin et al.. MRSA ATCC 43300 cells were collected in the logarithmic phase and resuspended in MHB. The bacterial suspension (10^6 CFU/mL) was inoculated in MHB containing Z33 (final concentration is 2 × or 4 × MIC) and incubated for 1 or 2 h at 37 °C with shaking (210 rpm). The group without the drug served as a control. After treatment with various concentrations of Z33, samples were subjected to one-thousand-fold dilution with MHB to remove the drug and incubated at 37 °C. In total, 100 µL of the samples was serially diluted in 0.9% saline and plated onto MHA at various time points (0, 1, 2, 4, 8 h). MHA plates were incubated at 37 °C for 18~24 h to calculate CFU. The growth kinetic curves of MRSA treated with different drug concentrations were established by plotting log10 CFU/mL of bacterial counts versus time. PAE was presented in hours and calculated according to the following equation: PAE = TA − TC, where TA and TC are the time required for MRSA to rise by 1 log10 CFU/mL after drug removal in the treated and untreated cultures, respectively.
# [8] = test system: S. aureus clinical strain AD3; assay: Determination of MPC (mutant prevention concentration); assay type: cell-based, Staphylococcus aureus
# Method: (§4) The drug-resistant tendency suppression potential of Z33 and tiamulin was determined as described with minor modifications. In the test, for each S. aureus strain, 4 mL of overnight cultures were inoculated into 100 mL of fresh BHI broth and then incubated for 4.5 h at 37 °C with shaking (210 rpm). Cultures were centrifuged at 5000 r/min for 10 min. The supernatant was discarded and resuspended in the 4 mL of saline to achieve a bacterial density of ~3 × 10^10 CFU/mL. In total, 100 μL of each culture was spread onto MHA containing various concentrations of Z33 and tiamulin. […] Plates were incubated at 37 °C for a total of 72 h and recorded every 24 h for the appearance of colonies. MPC was defined as the lowest concentration with no growth of colonies on the agar plate. MPC was carried out in triplicate.
# [9] = test system: S. aureus clinical strain 144; assay: as above; assay type: cell-based, Staphylococcus aureus
# Method: as §4
# MRSA ATCC 43300 [10] = assay: as above; assay type: cell-based, Staphylococcus aureus
# Method: as §4
# S. aureus ATCC 29213 [11] = assay: as above; assay type: cell-based, Staphylococcus aureus
# Method: as §4
# CYP2E1 = biological target: T1, CYP2E1 (Homo sapiens, UniProt P05181); assay: CYP450 inhibition assay, human liver microsomes, chlorzoxazone probe; assay type: in vitro ADME; settings: for IC50: human liver microsomes
# T1 construct: 40 µL of the human liver microsomal enzyme (final concentration is 0.5 g/L); tissue Research Institute for Liver Diseases Co., Ltd. (Shanghai, China); host or cells: human liver microsomes
# T1 sequence (P05181 whole entry): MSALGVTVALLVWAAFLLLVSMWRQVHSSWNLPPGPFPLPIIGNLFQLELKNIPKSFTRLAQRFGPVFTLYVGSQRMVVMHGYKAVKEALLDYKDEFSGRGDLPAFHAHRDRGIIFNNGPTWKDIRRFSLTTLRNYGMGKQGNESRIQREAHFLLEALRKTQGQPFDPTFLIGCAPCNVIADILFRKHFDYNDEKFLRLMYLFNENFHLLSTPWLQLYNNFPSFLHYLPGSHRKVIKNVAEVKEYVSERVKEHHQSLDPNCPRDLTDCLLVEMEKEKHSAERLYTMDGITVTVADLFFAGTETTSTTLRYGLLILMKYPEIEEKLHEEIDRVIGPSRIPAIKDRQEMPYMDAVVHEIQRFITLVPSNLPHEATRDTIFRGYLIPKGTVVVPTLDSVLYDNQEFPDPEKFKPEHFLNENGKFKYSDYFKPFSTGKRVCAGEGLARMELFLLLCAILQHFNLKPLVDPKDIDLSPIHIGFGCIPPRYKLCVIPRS
# Method: (§5) The inhibition effect of Z33 and tiamulin on the human liver microsomal enzyme was determined as described in the literature with some modifications. Experiments were performed in 96-well plates with a final incubation volume of 100 μL per well. 40 µL of the human liver microsomal enzyme (final concentration is 0.5 g/L), 20 µL of probe substrate (final concentration of testosterone and chlorzoxazone is 20 µmol/L), and 20 µL of test drug were mixed in each well. After preincubation at 37 °C for 5 min, the reactions were started by the addition of 20 μL of NADPH (final concentration is 1 mmol/L). Depending on the substrate, the chlorzoxazone and testosterone groups were incubated at 37 °C for 25 min and 10 min, respectively. The reaction was terminated by adding 100 µL of acetonitrile, and then the supernatant was centrifuged to analyse by LC-MS/MS.
# four S. aureus strains [12] = assay: microbe, parasite or virus in culture; assay type: cell-based, Staphylococcus aureus
# Method: To assess the propensity for the development of bacterial resistance, the ability of Z33 and tiamulin to induce resistance to four strains were tested, respectively. Serial passages at 37 °C were performed daily in BHI broth containing sub-MIC concentration (1/4 MIC) of Z33 and tiamulin. The MIC values were daily determined and recorded by the broth microdilution method. A duration of 13 passages was performed in every case.
# MRSA ATCC 43300 [13] = assay: Time-kill kinetics assay; assay type: cell-based, Staphylococcus aureus; settings: 8 × MIC; over 24 h of exposure
# Method: The time–kill kinetics curve of Z33 was determined according to previous reports. MRSA ATCC 43300 strains were grown in Mueller–Hinton Broth (MHB) at the starting inoculum of 10^6 CFU/mL. […] MHB without antibiotics was used as a control. At various time points (0, 3, 6, 9, and 24 h), 100 µL of samples were diluted with 0.9% saline and plated on MHA medium. CFU were recorded after 24 h of incubation at 37 °C.
# CYP3A4 = biological target: T2, CYP3A4 (Homo sapiens, UniProt P08684); assay: CYP450 inhibition assay, human liver microsomes, testosterone probe; assay type: in vitro ADME
# T2 construct: 40 µL of the human liver microsomal enzyme (final concentration is 0.5 g/L); tissue Research Institute for Liver Diseases Co., Ltd. (Shanghai, China); host or cells: human liver microsomes
# T2 sequence (P08684 whole entry): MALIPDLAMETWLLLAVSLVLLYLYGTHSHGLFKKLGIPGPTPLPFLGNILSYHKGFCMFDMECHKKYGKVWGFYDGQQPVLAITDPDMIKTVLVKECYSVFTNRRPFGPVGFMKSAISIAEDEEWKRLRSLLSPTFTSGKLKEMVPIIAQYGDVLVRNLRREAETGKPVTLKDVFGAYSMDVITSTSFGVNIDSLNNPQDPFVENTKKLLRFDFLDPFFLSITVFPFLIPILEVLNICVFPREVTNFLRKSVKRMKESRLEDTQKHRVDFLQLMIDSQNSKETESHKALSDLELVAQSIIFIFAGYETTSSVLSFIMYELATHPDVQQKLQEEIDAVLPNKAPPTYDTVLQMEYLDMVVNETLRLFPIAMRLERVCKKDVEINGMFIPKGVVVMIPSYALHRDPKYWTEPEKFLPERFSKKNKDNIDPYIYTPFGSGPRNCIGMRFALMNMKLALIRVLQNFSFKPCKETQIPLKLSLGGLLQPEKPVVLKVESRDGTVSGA
# Method: as §5
# four S. aureus strains [14] = assay: MPC, summary over four strains; assay type: cell-based, Staphylococcus aureus
# Method: as §4
# four S. aureus strains [15] = assay: MIC and MBC, summary over four strains; assay type: cell-based; settings: Staphylococcus aureus; range over four strains; read-out: MIC values against four S. aureus strains
# Method: as §1, §2
# RAW264.7 cells = assay: Cytotoxicity test (MTT assay); assay type: cell-based; settings: concentrations less than 5 μg/mL, 24 h, MTT
# Method: (§6) To assess the effects of tiamulin and Z33 on the viability of RAW264.7 macrophages, the MTT assay was performed according to previous reports. […] After discarding the MTT solution, DMSO (150 μL) was added to each well to dissolve all crystals. OD490nm was recorded using EnSight Multimode Plate Reader (PerkinElmer, […], USA).
# [16] = Cytotoxicity test (MTT assay); assay type: cell-based; settings: mouse, RAW264.7 macrophages, RAW264.7, MTT, tested up to 20 μg/mL
# Method: as §6
structure (smiles),measurement,setting,value
"C=C[C@]1(C)C[C@@H](OC(=O)CSc2ccccc2NC(=O)Cn2cc(CN3CCN(c4ccc([N+](=O)[O-])cc4)CC3)nn2)[C@]2(C)[C@H](C)CC[C@]3(CCC(=O)[C@H]32)[C@@H](C)[C@@H]1O [Compound Z33, 22-(2-(2-(4-((4-(4-nitrophenyl)piperazin-1-yl)methyl)-1H-1,2,3-triazol-1-yl)acetamido)phenyl)thioacety-l-yl-22-deoxypleuromutilin]",MIC,[1]; first value of cell,0.25 µg/mL
same,MBC,[1]; second value of cell,0.25 µg/mL
same,MIC,[2]; first value of cell,0.25 µg/mL
same,MBC,[2]; second value of cell,0.25 µg/mL
same,MIC,MRSA ATCC 43300 [3]; first value of MIC/MBC cell,0.125 µg/mL
same,MBC,MRSA ATCC 43300 [3]; second value of MIC/MBC cell,0.25 µg/mL
same,MIC,"S. aureus ATCC 29213 [4]; ATCC29213, first value of cell",0.125 µg/mL
same,MBC,"S. aureus ATCC 29213 [4]; ATCC29213, second value of cell",0.125 µg/mL
same,mortality,ICR mice,None of the mice died
same,LD50 at 14 days,[5],> 5000 mg/kg
same,MRSA inoculum in the thigh muscle,"MRSA ATCC 43300 [6]; 20 mg/kg intravenous, after treatment for 24 h",7.065 ± 0.070 log10 CFU/g
same,reduction of bacterial load in the thigh muscle,"MRSA ATCC 43300 [6]; 20 mg/kg intravenous, versus untreated group",approximately 1.358 log10 CFU/g
same,reduction in CFUs compared with the control group,"MRSA ATCC 43300 [6]; 20 mg/kg, p < 0.0001",1.358 log10
same,PAE,"MRSA ATCC 43300 [7]; 2 × MIC, exposure for 1 h",2.24 h
same,PAE,"MRSA ATCC 43300 [7]; 2 × MIC, exposure for 2 h",2.18 h
same,PAE,"MRSA ATCC 43300 [7]; 4 × MIC, exposure for 1 h",3.89 h
same,PAE,"MRSA ATCC 43300 [7]; 4 × MIC, exposure for 2 h",3.93 h
same,MPC,[8],0.5 µg/mL
same,MPC,[9],0.5 µg/mL
same,MPC,MRSA ATCC 43300 [10],0.5 µg/mL
same,MPC,S. aureus ATCC 29213 [11],0.5 µg/mL
same,fold difference of CYP2E1 IC50 relative to tiamulin,CYP2E1; Z33 vs tiamulin,at least 50 fold
same,IC50,"CYP2E1; Figure 6, read-out: IC50 CYP2E1 (value in plot key)",10.2 µM
same,IC50,"CYP2E1; bound given in text, read-out: IC50 CYP2E1",> 10 µM
same,fold decrease in susceptibility of the most resistant strain,four S. aureus strains [12]; after 13 passages,32 fold
same,fold increase in MICs,four S. aureus strains [12]; after 13 passages,approximately 16 fold
same,passages after which resistance developed (≥ 4-fold MIC increase),four S. aureus strains [12]; four S. aureus strains,8 passages
same,fold increase in MIC,"four S. aureus strains [12]; in 7 passages, sub-MIC (1/4 MIC) exposure",≤ 4 fold
same,concentration showing inhibition of bacterial growth (time-kill),MRSA ATCC 43300 [13],1 µg/mL
same,IC50,CYP3A4,1.57 µM
same,MPCs to four S. aureus strains,four S. aureus strains [14],0.5 µg/mL
same,MIC,four S. aureus strains [15],0.125 to 0.25 µg/mL
same,cytotoxicity on RAW264.7 cells,RAW264.7 cells,No significant cytotoxicity
same,IC50 at 24 h,[16],≥ 20 µg/mL

# Reference: publication PMC9370166, “In Vitro and In Vivo Antibacterial Activity, Toxicity and Resistance Analysis of Pleuromutilin Derivative Z33 against Methicillin-Resistant Staphylococcus aureus” (Molecules, 2022)
